According to patent US10570168B2, “2′ and/or 5′ amino-acid ester phosphoramidate 3′-deoxy adenosine derivatives as anti- cancer compounds” (NuCana plc, priority 2014, dated 2020):
Where two headings read alike, the source gives them in different places.

Experiments:
Type in all cases: cell-based
HepG2 [1] = assay: CellTiterGlo viability assay, initial screening; conditions: Homo sapiens, read-out: IC50 (relative IC50)
Summary of the method: (§1)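 Viability is measured with CellTiter-Glo following three days of treatment. Each compound runs as a nine-point titration at 3.16-fold steps, with a lowest final concentration of 19.9 nM, in duplicate wells at 0.5% final DMSO.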

KG-1 [2] = assay: CellTiterGlo viability assay, initial screening; conditions: Homo sapiens, read-out: IC50 (relative IC50)
Summary of the method: as §1

MCF-7 = assay: CellTiterGlo viability assay, initial screening; conditions: Homo sapiens, read-out: IC50 (relative IC50)
Summary of the method: as §1

MOLT-4 [3] = assay: CellTiterGlo viability assay, initial screening; conditions: Homo sapiens, read-out: IC50 (relative IC50)
Summary of the method: as §1

HL-60 [4] = assay: CellTiterGlo viability assay, initial screening; conditions: Homo sapiens, read-out: IC50 (relative IC50)
Summary of the method: as §1

K562 [5] = assay: CellTiterGlo viability assay, initial screening; conditions: Homo sapiens, read-out: IC50 (relative IC50)
Summary of the method: as §1

NCI-H929 = assay: Solid tumour and haematological malignancy assay (CellTiterGlo); conditions: Homo sapiens; for IC50: read-out: IC50 (absolute IC50); for Emax: read-out: MI %
Summary of the method: (§2)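 Cells were treated in duplicate with a 9-point, 3.16-fold dilution series for about 72 h under standard growth conditions. Final concentrations ran from […] to 19.9 nM, with 0.5% DMSO. Viability was read by CellTiter-Glo luminescence.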

RL = assay: as above; conditions: Homo sapiens; for IC50: read-out: IC50 (absolute IC50); for Emax: read-out: MI %
Summary of the method: as §2

RPMI-8226 = assay: as above; conditions: Homo sapiens; for IC50: read-out: IC50 (absolute IC50)
Summary of the method: as §2

Jurkat = assay: as above; conditions: Homo sapiens, read-out: IC50 (absolute IC50)
Summary of the method: as §2

MOLT-4 [6] = assay: as above; conditions: Homo sapiens; for IC50: read-out: IC50 (absolute IC50)
Summary of the method: as §2

HepG2 [7] = assay: as above; conditions: Homo sapiens; for IC50: read-out: IC50 (absolute IC50)
Summary of the method: (§3)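 Using duplicate wells at 0.5% final DMSO, compound effect on viability is determined by ATP-based CellTiterGlo luminescence following a 3-day incubation at 37° C.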

HT29 = assay: as above; conditions: Homo sapiens; for IC50: read-out: IC50 (absolute IC50)
Summary of the method: as §3

KG-1 [8] = assay: as above; conditions: Homo sapiens; for IC50: read-out: IC50 (absolute IC50); for Emax: read-out: MI %
Summary of the method: as §3

CCRFCEM = assay: as above; conditions: Homo sapiens, CCRF-CEM; for IC50: read-out: IC50 (absolute IC50); for Emax: read-out: MI %
Summary of the method: as §3

MiaPaCa-2 = assay: as above; conditions: Homo sapiens; for IC50: read-out: IC50 (absolute IC50)
Summary of the method: as §3

MCF7 = assay: as above; conditions: Homo sapiens; for IC50: read-out: IC50 (absolute IC50)
Summary of the method: as §3

HEL92.1.7 = assay: as above; conditions: Homo sapiens; for IC50: read-out: IC50 (absolute IC50)
Summary of the method: as §3

HL-60 [9] = assay: as above; conditions: Homo sapiens; for IC50: read-out: IC50 (absolute IC50)
Summary of the method: as §3

K562 [10] = assay: as above; conditions: Homo sapiens; for IC50: read-out: IC50 (absolute IC50); for Emax: read-out: MI %
Summary of the method: as §3

Nc1ncnc2c1ncn2[C@@H]1O[C@H](CO)C[C@H]1O [Cordycepin, 3′-deoxyadenosine, reference compound]
IC50 (HepG2 [1]; HepG2, 72 hr): 15 to 100 µM | IC50 (KG-1 [2]; KG-1, 72 hr): 15 to 100 µM | IC50 (MCF-7; MCF7, MCF-7, 72 hr): 15 to 100 µM | IC50 (MOLT-4 [3]; MOLT-4, 72 hr): 15 to 100 µM | IC50 (HL-60 [4]; HL-60, 72 hr): 15 to 100 µM | IC50 (K562 [5]; K562, 72 hr): 15 to 100 µM | IC50 (NCI-H929; NCI-H929, 72 hr): > 100 µM | Emax (NCI-H929; NCI-H929, 72 hr): 24% | IC50 (RL; 72 hr): > 100 µM | Emax (RL; 72 hr): 17% | IC50 (RPMI-8226; RPMI-8226, 72 hr): > 100 µM | Emax (RPMI-8226; RPMI-8226, 72 hr, read-out: MI %): 1% | IC50 (Jurkat; 72 hr): > 100 µM | IC50 (MOLT-4 [6]; MOLT-4, 72 hr): > 100 µM | Emax (MOLT-4 [6]; MOLT-4, 72 hr, read-out: MI %): 46% | IC50 (HepG2 [7]; HepG2, 72 hr): > 100 µM | Emax (HepG2 [7]; HepG2, 72 hr, read-out: MI %): 13% | IC50 (HT29; HT-29, HT29, 72 hr): > 100 µM | Emax (HT29; HT-29, HT29, 72 hr, read-out: MI %): 44% | IC50 (KG-1 [8]; KG-1, 72 hr): > 100 µM | Emax (KG-1 [8]; KG-1, 72 hr): 69% | IC50 (CCRFCEM; CCRFCEM, 72 hr): > 100 µM | Emax (CCRFCEM; CCRFCEM, 72 hr): 41% | IC50 (MiaPaCa-2; MIA PaCa-2, MiaPaCa-2, 72 hr): > 100 µM | Emax (MiaPaCa-2; MIA PaCa-2, MiaPaCa-2, 72 hr, read-out: MI %): 35% | IC50 (MCF7; MCF7, 72 hr): > 100 µM | Emax (MCF7; MCF7, 72 hr, read-out: MI %): 77% | IC50 (HEL92.1.7; HEL 92.1.7, HEL92.1.7, 72 hr): 15 to 100 µM | Emax (HEL92.1.7; HEL 92.1.7, HEL92.1.7, 72 hr, read-out: MI %): 88% | IC50 (HL-60 [9]; HL-60, 72 hr): > 100 µM | Emax (HL-60 [9]; HL-60, 72 hr, read-out: MI %): 61% | IC50 (K562 [10]; K562, 72 hr): 15 to 100 µM | Emax (K562 [10]; K562, 72 hr): 78%

COC(=O)C(C)(C)NP(=O)(OC[C@@H]1C[C@@H](O)[C@H](n2cnc3c(N)ncnc32)O1)Oc1cccc2ccccc12 (stereo partly drawn) [E, Methyl 2-(((((2S,4R,5R)-5-(6-amino-9H-purin-9-yl)-4-hydroxytetrahydrofuran-2-yl)-methoxy)(naphthalen-1-yloxy)phosphoryl)amino)-2-methylpropanoate]
IC50 (HepG2 [1]; HepG2, 72 h): 15 to 100 µM | IC50 (KG-1 [2]; KG-1, 72 h): 15 to 100 µM | IC50 (MCF-7; MCF7, 72 h): 15 to 100 µM | IC50 (MOLT-4 [3]; MOLT-4, 72 h): 5 to 15 µM | IC50 (HL-60 [4]; HL-60, 72 h): 15 to 100 µM | IC50 (K562 [5]; K562, 72 h): > 100 µM | IC50 (NCI-H929; NCI-H929, 72 h): 15 to 100 µM | IC50 (RL; 72 h): 5 to 15 µM | IC50 (RPMI-8226; RPMI-8226, 72 h): 15 to 100 µM | IC50 (Jurkat; 72 h): 5 to 15 µM | IC50 (MOLT-4 [6]; MOLT-4, 72 h): 0.1 to 5 µM | IC50 (HepG2 [7]; HepG2, 72 h): 15 to 100 µM | IC50 (HT29; HT-29, 72 h): 15 to 100 µM | IC50 (KG-1 [8]; KG-1, 72 h): 15 to 100 µM | Emax (KG-1 [8]; KG-1, 72 h): 100% | IC50 (CCRFCEM; 72 h): 0.1 to 5 µM | Emax (CCRFCEM; 72 h): 100% | IC50 (MiaPaCa-2; MIA PaCa-2, 72 h): 15 to 100 µM | IC50 (MCF7; MCF7, 72 h): 5 to 15 µM | IC50 (HEL92.1.7; HEL 92.1.7, 72 h): 15 to 100 µM | IC50 (HL-60 [9]; HL-60, 72 h): 5 to 15 µM | IC50 (K562 [10]; K562, 72 h): 5 to 15 µM | Emax (K562 [10]; K562, 72 h): 90%

CCOC(=O)CCc1ccccc1OP(=O)(N[C@@H](C)C(=O)OCc1ccccc1)OC[C@@H]1C[C@@H](O)[C@H](n2cnc3c(N)ncnc32)O1 (stereo partly drawn) [F, (2S)-benzyl 2-(((((2S,4R,5R)-5-(6-amino-9H-purin-9-yl)-4-hydroxytetrahydrofuran-2-yl)methoxy)(2-(3-ethoxy-3-oxopropyl)phenoxy)phosphoryl)amino)propanoate]
IC50 (HepG2 [1]; HepG2, 72 h): 15 to 100 µM | IC50 (KG-1 [2]; KG-1, 72 h): 15 to 100 µM | IC50 (MCF-7; MCF7, 72 h): 5 to 15 µM | IC50 (MOLT-4 [3]; MOLT-4, 72 h): 0.1 to 5 µM | IC50 (HL-60 [4]; HL-60, 72 h): 15 to 100 µM | IC50 (K562 [5]; K562, 72 h): 15 to 100 µM | IC50 (NCI-H929; NCI-H929, 72 h): 5 to 15 µM | Emax (NCI-H929; NCI-H929, 72 h): 100% | IC50 (RL; 72 h): 5 to 15 µM | Emax (RL; 72 h): 90% | IC50 (RPMI-8226; RPMI-8226, 72 h): 15 to 100 µM | IC50 (Jurkat; 72 h): 0.1 to 5 µM | IC50 (MOLT-4 [6]; MOLT-4, 72 h): 0.1 to 5 µM | IC50 (HepG2 [7]; HepG2, 72 h): 15 to 100 µM | IC50 (HT29; HT-29, 72 h): 15 to 100 µM | IC50 (KG-1 [8]; KG-1, 72 h): 15 to 100 µM | IC50 (CCRFCEM; 72 h): 0.1 to 5 µM | IC50 (MiaPaCa-2; MIA PaCa-2, 72 h): 5 to 15 µM | IC50 (MCF7; MCF7, 72 h): 5 to 15 µM | IC50 (HEL92.1.7; HEL 92.1.7, 72 h): 5 to 15 µM | IC50 (HL-60 [9]; HL-60, 72 h): 5 to 15 µM | IC50 (K562 [10]; K562, 72 h): 0.1 to 5 µM
